From patent US12460177B2, “Composition for promoting efficiency of somatic cell replication” (SEOUL NATIONAL UNIVERSITY HOSPITAL, priority 2018, dated 2025) come the findings set out here.

For the test, the system named is H3K9me3 / H3K4me3 binding at the Apobec1 (demethylase) promoter region. Put plainly: ChIP-PCR with Apobec1 promoter primers in human mesenchymal stem cells treated with endothelin. The settings on record: endothelin treatment, FIG. 1. The class given is cell-based. The source says:
Human mesenchymal stem cells were transfected with siRNA of SMARCA4 or SMARCD2, treated with endothelin, and then harvested. In the present invention, human mesenchymal stem cells (Poietics™ Human Mesenchymal Stem Cells, Lonza) were used. The cells were selected by conducting a human mesenchymal stem cell identification experiment, and identified and classified as human bone marrow-derived stem cells after the expression of a positive cell marker (CD29, CD90, CD44, CD73, CD105 or CD166) for mesenchymal stem cells, the negative identification by a cell marker (CD34, CD45, CD14, HLA-DR or CD19), and the confirmation of multipotency of mesenchymal stem cells.
Genomic DNA was extracted from the recovered cells, and reacted with a H3K9me3 or H3K4me3 antibody [anti-H3K9me3 (Abcam: cat. no. ab8898), anti-H3K4me3 (Abcam; cat. no. ab8580) or normal rabbit IgG (Cell Signaling Technology: cat. no. #2729): negative control], followed by ChIP-PCR performed using Apobec1 promoter primers that are able to confirm the binding of H3K9me3 or H3K4me3. […]
Subsequently, the resulting product was heated at 65° C. for 4 hours to remove a crosslink. DNA fragments were collected using a PCR purification kit (Qiagen) and analyzed using qPCR and semi-quantitative PCR, and the results are shown in FIG. 1.

In the case of “endothelin (HLDIIW; listed as Mus musculus) [peptide generated in vascular endothelial cells, 21 amino acid residues, two S—S bonds, known as a vasoconstrictive peptide]”, the “binding of H3K4me3 (promoting gene expression) at the demethylase promoter region” value (ChIP-PCR (anti-H3K4me3)) is on record as “increases”. In addition, the “H3K9me3 (suppressing gene expression) at the demethylase promoter region” value (ChIP-PCR (anti-H3K9me3)) is “detached”.
